Data taken from PubChem BioAssay (NCI).
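Exposure lasted 48 hours, with cells grown in 96-well plates and compounds tested at five concentrations. TGI is the concentration that stops growth completely.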

How the values were obtained:
Assay in all cases: NCI tumour cell line growth inhibition, 48 h
[1] = system: 786-0 renal
[2] = system: A498 renal
[3] = system: A549 NSCLC
[4] = system: ACHN renal
[5] = system: BT-549 breast
[6] = system: CAKI-1 renal
[7] = system: CCRF-CEM leukemia
[8] = system: COLO 205 colon
[9] = system: DLD-1 colon
[10] = system: DMS 114 small cell lung
[11] = system: DMS 273 small cell lung
[12] = system: DU-145 prostate
[13] = system: EKVX NSCLC
[14] = system: HCC-2998 colon
[15] = system: HCT-116 colon
[16] = system: HCT-15 colon
[17] = system: HL-60(TB) leukemia
[18] = system: HOP-18 NSCLC
[19] = system: HOP-62 NSCLC
[20] = system: HOP-92 NSCLC
[21] = system: HS 578T breast
[22] = system: HT29 colon
[23] = system: IGROV1 ovarian
[24] = system: K-562 leukemia
[25] = system: KM12 colon
[26] = system: KM20L2 colon
[27] = system: LOX IMVI melanoma
[28] = system: LXFL 529 NSCLC
[29] = system: M14 melanoma
[30] = system: M19-MEL melanoma
[31] = system: MALME-3M melanoma
[32] = system: MCF7 breast
[33] = system: MDA-MB-231 breast
[34] = system: MDA-N
[35] = system: MOLT-4 leukemia
[36] = system: NCI-H226 lung
[37] = system: NCI-H23 lung
[38] = system: NCI-H460 lung
[39] = system: NCI-H522 lung
[40] = system: NCI/ADR-RES ovarian
[41] = system: OVCAR-3 ovarian
[42] = system: OVCAR-4 ovarian
[43] = system: OVCAR-5 ovarian
[44] = system: OVCAR-8 ovarian
[45] = system: P388/ADR leukemia
[46] = system: PC-3 prostate
[47] = system: RPMI-8226 leukemia
[48] = system: RXF 393 renal
[49] = system: SF-268 CNS
[50] = system: SF-295 CNS
[51] = system: SF-539 CNS
[52] = system: SK-MEL-2 melanoma
[53] = system: SK-MEL-28 melanoma
[54] = system: SK-MEL-5 melanoma
[55] = system: SK-OV-3 ovarian
[56] = system: SN12C renal
[57] = system: SN12K1 renal
[58] = system: SNB-19 CNS
[59] = system: SNB-75 CNS
[60] = system: SNB-78 CNS
[61] = system: SR leukemia
[62] = system: SW-620 colon
[63] = system: T-47D breast
[64] = system: TK-10 renal
[65] = system: U251 CNS
[66] = system: UACC-257 melanoma
[67] = system: UACC-62 melanoma
[68] = system: UO-31 renal
[69] = system: XF 498 CNS

In the case of COC(=O)[C@]12CC=C3O[C@@H]4OC5(CCCCC5)O[C@@H]4[C@H]3C1C(=O)C=CC2=O (some centres undefined), the TGI [1] is reported as 30.8 µM, the TGI [2] is reported as 33.6 µM and the TGI [3] is reported as 55 µM. The TGI [4] was 32.6 µM, the TGI [5] was 34.5 µM and the TGI [6] was 30.4 µM. It also gave a TGI [7] of 14.3 µM, a TGI [8] of 30.4 µM and a TGI [9] of 29.9 µM. It also gave a TGI [10] of 33.7 µM, a TGI [11] of 34.3 µM and a TGI [12] of 47.2 µM. For the same compound, the TGI [13] was 52.1 µM, the TGI [14] was 31.4 µM and the TGI [15] was 32.4 µM. For the same compound, the TGI [16] was 34.2 µM, the TGI [17] was 25.9 µM and the TGI [18] was 32.6 µM. For the same compound, the TGI [19] was 37.9 µM, the TGI [20] was 33.1 µM and the TGI [21] was 78.4 µM. The TGI [22] was 34.6 µM, the TGI [23] was 34.5 µM and the TGI [24] was 65 µM. The TGI [25] was 20.7 µM, the TGI [26] was 37.5 µM and the TGI [27] was 35.2 µM. The TGI [28] was 23.8 µM, the TGI [29] was 32 µM and the TGI [30] was 30.9 µM. It also gave a TGI [31] of 34.2 µM, a TGI [32] of 35.5 µM and a TGI [33] of 32.8 µM. The TGI [34] was 33.6 µM, the TGI [35] was 21.4 µM and the TGI [36] was 34.5 µM. It also gave a TGI [37] of 33.6 µM, a TGI [38] of 45.5 µM and a TGI [39] of 15.4 µM. For the same compound, the TGI [40] was 38.5 µM, the TGI [41] was 28.7 µM and the TGI [42] was 31.4 µM. The TGI [43] was 38.8 µM, the TGI [44] was 44.1 µM and the TGI [45] was 10.5 µM. For the same compound, the TGI [46] was 52.3 µM, the TGI [47] was 21.6 µM and the TGI [48] was 25.8 µM. The TGI [49] was 30 µM, the TGI [50] was 42.2 µM and the TGI [51] was 34.8 µM. It also gave a TGI [52] of 48.4 µM, a TGI [53] of 34.2 µM and a TGI [54] of 32.8 µM. For the same compound, the TGI [55] was 48.7 µM, the TGI [56] was 35.1 µM and the TGI [57] was 31.4 µM. The TGI [58] was 66.2 µM, the TGI [59] was 34.7 µM and the TGI [60] was 37.2 µM. For the same compound, the TGI [61] was greater than 76.8 µM, the TGI [62] was 32.1 µM and the TGI [63] was 42.5 µM. The TGI [64] was 31.4 µM, the TGI [65] was 36.1 µM and the TGI [66] was 32.5 µM. The TGI [67] was 30.2 µM, the TGI [68] was 30.8 µM and the TGI [69] was 20 µM.
